Measurements from patent publication US12559750B2, “Methods and compositions for treatment of polycystic kidney disease” (Regulus Therapeutics Inc., priority 2021, dated 2026).

Columns and labels:
Pcy/DBA mice = experiment: Efficacy in Pcy/DBA mouse model of PKD, alone and with tolvaptan; type: in vivo;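 also: dosing began at 6 weeks of age, with endpoints collected 7 days after the last dose and PBS-injected wild-type DBA/2J mice as the normal reference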
Method: The efficacy of RG-NG-1015 was also evaluated in the Pcy/DBA mouse model of PKD alone and in combination with tolvaptan.
As outlined in FIGS. 6A and 6B, five groups of male Pcy/DBA mice (n=13 per treatment group) were treated subcutaneously with PBS or RG-NG-1015 at 25, 5, 1, or 0.2 mg/kg once every two weeks (Q2W). Two groups of male Pcy/DBA mice (n=13 per group) were also treated with RG-NG-1015 at 50 mg/kg once every four weeks (Q4W) or at 12.5 mg/kg once weekly (QW). Another four groups of male Pcy/DBA mice (n=13 per group) were treated subcutaneously with PBS or RG-NG-1015 at 25, 5, or 1 mg/kg Q2W in combination with tolvaptan at 0.3% (w/w chow) ad libitum. A group of male WT-BDA/2J mice received subcutaneous injections of PBS Q2W was included in the study as a normal range reference. Mice were randomized into treatment groups at 5 weeks of age, and treatment started at 6 weeks of age for 17 weeks and were sacrificed 7 days after the final treatment. Kidney weight, body weight, kidney cyst index, urine Ngal-to-Creatinine ratio (Ngal/Cr) were measured.

miR-17 = conditions: mIMCD3, mouse, Normal; value reported by Lee et al., Nat. Commun., 2019; read-out: miR-17 PD-Sig (EC50); cited from earlier work
AMPA glutamate receptor [1] = experiment: Off-target panel, ligand binding (RGLS4326)
Method: (§1) To identify potential candidates for off-target pharmacology, a panel of 174 targets including G-protein coupled receptors, transporters, ion channels, nuclear receptors, and cytokine receptors was evaluated in vitro for possible interactions with RGLS4326. […] AMPA receptors are ion channels on excitatory synapses in the CNS that mediate fast excitatory neurotransmission and, therefore, are key components of all neuronal networks. Such an interaction with the AMPA receptor could explain the CNS-mediated findings observed at high doses of RGLS4326 in nonclinical toxicology models.

AMPA glutamate receptor [2] = experiment: Patch clamp activity (RGLS4326, off-target follow-up); type: cell-based
Method: as §1

[3] = RG-NG-1015 0.2 mg/kg SC Q2W, 17 weeks
[4] = RG-NG-1015 1 mg/kg SC Q2W + 0.3% Tolvaptan in chow
[5] = RG-NG-1015 1 mg/kg SC Q2W, 17 weeks
[6] = RG-NG-1015 5 mg/kg SC Q2W + 0.3% Tolvaptan in chow
[7] = RG-NG-1015 5 mg/kg SC Q2W, 17 weeks
[8] = RG-NG-1015 12.5 mg/kg SC QW, 17 weeks
[9] = RG-NG-1015 25 mg/kg SC Q2W + 0.3% Tolvaptan in chow
[10] = RG-NG-1015 25 mg/kg SC Q2W, 17 weeks
[11] = RG-NG-1015 50 mg/kg SC Q4W, 17 weeks

Sequence: ASGSCMAFCFUFUMUSAS [RG-NG-1015]
- Mean Cystic Area (Pcy/DBA mice; [3]): 47.09%
- Mean Cystic Area % Inhibition (Pcy/DBA mice; [3]): 24.8%
- Mean KW/BW (Pcy/DBA mice; [3]): 78 mg/g
- Mean KW/BW % Inhibition (Pcy/DBA mice; [3]): 18.7%
- Mean Urine Ngal/Cr (Pcy/DBA mice; [3]): 18.38 mg/mg
- Mean Urine Ngal/Cr % Inhibition (Pcy/DBA mice; [3]): 13.5%
- Mean Cystic Area (Pcy/DBA mice; [4]): 41.91%
- Mean Cystic Area % Inhibition (Pcy/DBA mice; [4]): 34.3%
- Mean Cystic Area Bliss Analysis (Pcy/DBA mice; [4]): <Additive
- Mean KW/BW (Pcy/DBA mice; [4]): 47.1 mg/g
- Mean KW/BW % Inhibition (Pcy/DBA mice; [4]): 62.0%
- Mean KW/BW Bliss Analysis (Pcy/DBA mice; [4]): Synergistic
- Mean Urine Ngal/Cr (Pcy/DBA mice; [4]): 11.16 mg/mg
- Mean Urine Ngal/Cr % Inhibition (Pcy/DBA mice; [4]): 49.8%
- Mean Urine Ngal/Cr Bliss Analysis (Pcy/DBA mice; [4]): <Additive
- Mean Cystic Area (Pcy/DBA mice; [5]): 50.58%
- Mean Cystic Area % Inhibition (Pcy/DBA mice; [5]): 18.4%
- Mean KW/BW (Pcy/DBA mice; [5]): 82.4 mg/g
- Mean KW/BW % Inhibition (Pcy/DBA mice; [5]): 12.5%
- Mean Urine Ngal/Cr (Pcy/DBA mice; [5]): 15.18 mg/mg
- Mean Urine Ngal/Cr % Inhibition (Pcy/DBA mice; [5]): 29.6%
- Mean Cystic Area (Pcy/DBA mice; [6]): 37.47%
- Mean Cystic Area % Inhibition (Pcy/DBA mice; [6]): 42.5%
- Mean Cystic Area Bliss Analysis (Pcy/DBA mice; [6]): <Additive
- Mean KW/BW (Pcy/DBA mice; [6]): 45.6 mg/g
- Mean KW/BW % Inhibition (Pcy/DBA mice; [6]): 64.1%
- Mean KW/BW Bliss Analysis (Pcy/DBA mice; [6]): Synergistic
- Mean Urine Ngal/Cr (Pcy/DBA mice; [6]): 5.84 mg/mg
- Mean Urine Ngal/Cr % Inhibition (Pcy/DBA mice; [6]): 76.6%
- Mean Urine Ngal/Cr Bliss Analysis (Pcy/DBA mice; [6]): Additive
- Mean Cystic Area (Pcy/DBA mice; [7]): 44.58%
- Mean Cystic Area % Inhibition (Pcy/DBA mice; [7]): 29.4%
- Mean KW/BW (Pcy/DBA mice; [7]): 70 mg/g
- Mean KW/BW % Inhibition (Pcy/DBA mice; [7]): 29.9%
- Mean Urine Ngal/Cr (Pcy/DBA mice; [7]): 14.65 mg/mg
- Mean Urine Ngal/Cr % Inhibition (Pcy/DBA mice; [7]): 32.3%
- Mean Cystic Area (Pcy/DBA mice; [8]): 44.99%
- Mean Cystic Area % Inhibition (Pcy/DBA mice; [8]): 28.7%
- Mean KW/BW (Pcy/DBA mice; [8]): 74.5 mg/g
- Mean KW/BW % Inhibition (Pcy/DBA mice; [8]): 23.6%
- Mean Urine Ngal/Cr (Pcy/DBA mice; [8]): 8.82 mg/mg
- Mean Urine Ngal/Cr % Inhibition (Pcy/DBA mice; [8]): 61.6%
- Mean Cystic Area (Pcy/DBA mice; [9]): 38.61%
- Mean Cystic Area % Inhibition (Pcy/DBA mice; [9]): 40.4%
- Mean Cystic Area Bliss Analysis (Pcy/DBA mice; [9]): <Additive
- Mean KW/BW (Pcy/DBA mice; [9]): 42.2 mg/g
- Mean KW/BW % Inhibition (Pcy/DBA mice; [9]): 68.9%
- Mean KW/BW Bliss Analysis (Pcy/DBA mice; [9]): Synergistic
- Mean Urine Ngal/Cr (Pcy/DBA mice; [9]): 5.04 mg/mg
- Mean Urine Ngal/Cr % Inhibition (Pcy/DBA mice; [9]): 80.6%
- Mean Urine Ngal/Cr Bliss Analysis (Pcy/DBA mice; [9]): Additive
- Mean Cystic Area (Pcy/DBA mice; [10]): 46.46%
- Mean Cystic Area % Inhibition (Pcy/DBA mice; [10]): 26.0%
- Mean KW/BW (Pcy/DBA mice; [10]): 66.9 mg/g
- Mean KW/BW % Inhibition (Pcy/DBA mice; [10]): 34.3%
- Mean Urine Ngal/Cr (Pcy/DBA mice; [10]): 11.36 mg/mg
- Mean Urine Ngal/Cr % Inhibition (Pcy/DBA mice; [10]): 48.8%
- Mean Cystic Area (Pcy/DBA mice; [11]): 47.35%
- Mean Cystic Area % Inhibition (Pcy/DBA mice; [11]): 24.3%
- Mean KW/BW (Pcy/DBA mice; [11]): 67.1 mg/g
- Mean KW/BW % Inhibition (Pcy/DBA mice; [11]): 34.0%
- Mean Urine Ngal/Cr (Pcy/DBA mice; [11]): 9.32 mg/mg
- Mean Urine Ngal/Cr % Inhibition (Pcy/DBA mice; [11]): 59.1%

Sequence: ASGSCMAFCFUFUMUSGS [RGLS4326, reference compound]
- EC50 (miR-17): 77.2 nM
- 50% inhibitory concentration (IC50) based on ligand binding (AMPA glutamate receptor [1]): 14.2 µg/mL
- IC50 (AMPA glutamate receptor [1]; read-out: 50% inhibitory concentration (IC50) based on ligand binding): 4600 nM
- functional IC50 based on patch clamp activity (AMPA glutamate receptor [2]): 0.9 to 1.8 µg/mL
- IC50 (AMPA glutamate receptor [2]; read-out: functional IC50 based on patch clamp activity): 300 to 600 nM
